ChEMBL document CHEMBL5352395, “The discovery of novel antifungal phenylpyridines derivatives based on CYP53 binding model” (Eur J Med Chem, 2022)
In brackets after ≈: the same amount, converted by molar mass. Activity calls are given as the source filed them. The rule behind the calls is not given here.

Legend:
[1] = test system: Candida albicans; test: Induction of apoptosis in Candida albicans ATCC SC5314 assessed as live cells incubated for 24 hrs by Annexin V-FITC/PI staining based flow cytometry method (reference value: 92.69%); assay type: functional
[2] = test system: Candida albicans; test: Induction of morphological changes in Candida albicans ATCC SC5314 assessed as increase in cell permeability at 1 uM/ml incubated for 48 hrs by transmission electron microscopy; assay type: functional, organism-based
[3] = test system: Nakaseomyces glabratus; test: Antifungal activity against Candida glabrata ATCC 0001 assessed as reduction in fungal growth; assay type: functional
[4] = test system: Candida albicans; test: Induction of mitochondrial membrane potential loss in Candida albicans ATCC SC5314 assessed as polarized cells at 1 uM/ml incubated for 24 hrs by JC-1 staining based flow cytometry analysis (reference value: 93.17%); assay type: functional
[5] = test system: Candida albicans; test: Antifungal activity against Candida albicans 901 assessed as reduction in fungal growth; assay type: functional
[6] = test system: Candida albicans; test: Induction of morphological changes in Candida albicans ATCC SC5314 assessed as reduction in cell wall thickness at 1 uM/ml incubated for 48 hrs by transmission electron microscopy; assay type: functional, organism-based
[7] = test system: Candida albicans; test: Induction of apoptosis in Candida albicans ATCC SC5314 assessed as necrotic cells incubated for 24 hrs by Annexin V-FITC/PI staining based flow cytometry method (reference value: 5.36%); assay type: functional
[8] = Toxicity in ip dosed mouse assessed as pathological damage in spleen administered on day 2,4,6,8,10 and measured on day 12 by H and E staining based analysis; assay type: organism-based; conditions: in vivo, 288 h, time 12 day
[9] = test system: Candida albicans; test: Antifungal activity against Candida albicans ATCC SC5314 infected in mouse assessed as disappearance of nuclear aggregation phenomenon administered intraperitoneally on day 2,4,6,8 and 10 and measured after 12 days by H and E/GMS staining based analysis; assay type: functional, organism-based; conditions: route ip, time 12.0 day
[10] = test system: Candida albicans; test: Induction of apoptosis in Candida albicans ATCC SC5314 assessed as late apoptotic cells incubated for 24 hrs by Annexin V-FITC/PI staining based flow cytometry method (reference value: 1.22%); assay type: functional
[11] = Toxicity in ip dosed mouse assessed as blood urea nitrogen level in plasma administered on day 2,4,6,8 and 10 (reference value: 7.4 +/ -0.6 mmol/L); assay type: organism-based; conditions: in vivo, 240 h, time 10 day
[12] = Inhibition of CYP53 in Candida albicans ATCC SC5314 assessed as unknown sterol level at 8 ug/ml incubated for 16 hrs by LC-MS analysis (Rvb=5.9%); assay type: ADME; design: scale not given: the % may be the effect or the level left; conditions: at 8 µg/mL
[13] = Toxicity in ip dosed mouse assessed as increase in body weight administered for 10 days; assay type: organism-based; conditions: in vivo, 240 h, time 10 day
[14] = Toxicity in ip dosed mouse assessed as pathological damage in liver administered on day 2,4,6,8,10 and measured on day 12 by H and E staining based analysis; assay type: organism-based; conditions: in vivo, 288 h, time 12 day
[15] = test system: Candida albicans; test: Induction of morphological changes in Candida albicans ATCC SC5314 assessed as leakage of endogenous substances in fungal cells at 1 uM/ml incubated for 72 hrs by transmission electron microscopy; assay type: functional, organism-based
[16] = test system: Pichia kudriavzevii; test: Antifungal activity against Candida krusei ATCC 6258 assessed as reduction in fungal growth; assay type: functional
[17] = test system: Candida albicans; test: Induction of morphological changes in Candida albicans ATCC SC5314 assessed as rupture of cell membranes at 1 uM/ml incubated for 72 hrs by transmission electron microscopy; assay type: functional, organism-based
[18] = test system: Candida albicans; test: Induction of morphological changes in Candida albicans ATCC SC5314 assessed as disappearance of marginal region of fungal cells at 1 uM/ml incubated for 48 hrs by transmission electron microscopy; assay type: functional, organism-based
[19] = test system: Candida albicans; test: Antifungal activity against Candida albicans 17# assessed as reduction in fungal growth; assay type: functional
[20] = test system: Candida albicans; test: Induction of apoptosis in Candida albicans ATCC SC5314 assessed as mid apoptotic cells incubated for 24 hrs by Annexin V-FITC/PI staining based flow cytometry method (reference value: 1.03%); assay type: functional
[21] = test system: Candida albicans; test: Antifungal activity against Candida albicans ATCC SC5314 infected in mouse assessed as recovery of regular cell distribution administered intraperitoneally on day 2,4,6,8 and 10 and measured after 12 days by H and E/GMS staining based analysis; assay type: functional, organism-based; conditions: route ip, time 12.0 day
[22] = Inhibition of CYP53 in Candida albicans ATCC SC5314 assessed as benzoate level at 8 ug/ml incubated for 16 hrs by LC-MS analysis (Rvb=11.4%); assay type: ADME; design: scale not given: the % may be the effect or the level left; conditions: at 8 µg/mL
[23] = Inhibition of CYP53 in Candida albicans ATCC SC5314 assessed as 4-hydroxybenzoate level at 8 ug/ml incubated for 16 hrs by LC-MS analysis (Rvb=82.7%); assay type: ADME; design: scale not given: the % may be the effect or the level left; conditions: at 8 µg/mL
[24] = test system: Candida albicans; test: Antifungal activity against Candida albicans ATCC 10231 assessed as reduction in fungal growth; assay type: functional
[25] = Toxicity in ip dosed mouse assessed as pathological damage in heart administered on day 2,4,6,8,10 and measured on day 12 by H and E staining based analysis; assay type: organism-based; conditions: in vivo, 288 h, time 12 day
[26] = Toxicity in ip dosed mouse assessed as pathological damage in lungs administered on day 2,4,6,8,10 and measured on day 12 by H and E staining based analysis; assay type: organism-based; conditions: in vivo, 288 h, time 12 day
[27] = test system: Candida albicans; test: Induction of morphological changes in Candida albicans ATCC SC5314 assessed as appearance of cell wall and membrane remnants at 1 uM/ml incubated for 96 hrs by transmission electron microscopy; assay type: functional, organism-based
[28] = Toxicity in ip dosed mouse assessed as AST level in plasma administered on day 2,4,6,8 and 10 (reference value: 60.3 +/- 5.4 IU/L); assay type: organism-based; conditions: in vivo, 240 h, time 10 day
[29] = Toxicity in ip dosed mouse assessed as pathological damage in kidneys administered on day 2,4,6,8,10 and measured on day 12 by H and E staining based analysis; assay type: organism-based; conditions: in vivo, 288 h, time 12 day
[30] = test system: Aspergillus fumigatus; test: Antifungal activity against Aspergillus fumigatus KM8001 assessed as reduction in fungal growth; assay type: functional
[31] = test system: Candida albicans; test: Antifungal activity against Candida albicans ATCC SC5314 assessed as reduction in fungal cell proliferation by measuring cell count (reference value: 216); assay type: functional
[32] = Toxicity in ip dosed mouse assessed as ALT level in plasma administered on day 2,4,6,8 and 10 (reference value: 35.9 +/- 4.6 IU/L); assay type: organism-based; conditions: in vivo, 240 h, time 10 day
[33] = test system: Candida albicans; test: Antifungal activity against Candida albicans ATCC SC5314 assessed as induction of ROS production by measuring increase in fluorescence intensity; assay type: functional, organism-based
[34] = test system: Candida albicans; test: Antifungal activity against Candida albicans ATCC SC5314 infected in mouse assessed as reduction in fungal growth in infection region administered intraperitoneally on day 2,4,6,8 and 10 and measured after 12 days by H and E/GMS staining based analysis; assay type: functional, organism-based; conditions: route ip, time 12.0 day
[35] = test system: Candida albicans; test: Antifungal activity against Candida albicans ATCC SC5314 infected in mouse assessed as reduction in fungal infection administered intraperitoneally on day 2,4,6,8 and 10 and measured after 12 days; assay type: functional, organism-based; conditions: route ip, time 12.0 day
[36] = test system: Candida albicans; test: Antifungal activity against Candida albicans ATCC SC5314 assessed as reduction in fungal cell proliferation by measuring cell count (reference value: 235); assay type: functional

CC1CCN(C(=O)c2ccc(C(=O)NC(C)C(=O)Nc3ccncc3)cc2)CC1 (stereo unspecified)
Activity [1]: 58.17% | Activity [2]: Active | MIC [3]: 0.5 µg/mL (≈ 1.27 µM) | Activity [4]: 68.3% | MIC [5]: 2 µg/mL (≈ 5.07 µM) | Activity [6]: Active | Activity [7]: 40.61% | Activity [8]: Non-Toxic | Activity [9]: Active | Activity [10]: 0.91% | Activity [11]: 6.1 mmol/L | Activity [12]: 8.2% | Activity [13]: Toxic | Activity [14]: Non-Toxic | Activity [15]: Active | MIC [16]: 1 µg/mL (≈ 2.54 µM) | Activity [17]: Active | Activity [18]: Active | MIC [19]: 2 µg/mL (≈ 5.07 µM) | Activity [20]: 0.31% | Activity [21]: Active | Activity [22]: 68.5% | Activity [23]: 23.3% | MIC [24]: 0.5 µg/mL (≈ 1.27 µM) | Activity [25]: Non-Toxic | Activity [26]: Non-Toxic | Activity [27]: Active | Activity [28]: 53.7 IU/L | Activity [29]: Non-Toxic | MIC [30]: 2 µg/mL (≈ 5.07 µM) | Activity [31]: 123 | Activity [32]: 47.4 IU/L | Activity [33]: Active | Activity [34]: Active | Activity [35]: Active

CCC(C)C(NC(=O)c1ccc(C(=O)N2CCC(C)CC2)cc1)C(=O)Nc1ccncc1 (stereo unspecified)
MIC [3]: 2 µg/mL (≈ 4.58 µM) | MIC [5]: 8 µg/mL (≈ 18.3 µM) | MIC [16]: 1 µg/mL (≈ 2.29 µM) | MIC [19]: 4 µg/mL (≈ 9.16 µM) | MIC [24]: 1 µg/mL (≈ 2.29 µM) | MIC [30]: 8 µg/mL (≈ 18.3 µM)

CCC(C)C(NC(=O)c1ccc(C(=O)OC)cc1)C(=O)Nc1ccncc1 (stereo unspecified)
MIC [3]: 4 µg/mL (≈ 10.8 µM) | MIC [5]: 4 µg/mL (≈ 10.8 µM) | MIC [16]: 2 µg/mL (≈ 5.41 µM) | MIC [19]: 2 µg/mL (≈ 5.41 µM) | MIC [24]: 4 µg/mL (≈ 10.8 µM) | MIC [30]: > 16 µg/mL

CCC(C)C(NC(=O)c1ccc(/C=C/C(=O)N2CCC(C)CC2)cc1)C(=O)Nc1ccncc1 (stereo unspecified)
MIC [3]: 2 µg/mL (≈ 4.32 µM) | MIC [5]: 8 µg/mL (≈ 17.3 µM) | MIC [16]: 1 µg/mL (≈ 2.16 µM) | MIC [19]: 4 µg/mL (≈ 8.65 µM) | MIC [24]: 2 µg/mL (≈ 4.32 µM) | MIC [30]: > 16 µg/mL

CC1CCN(C(=O)/C=C/c2ccc(C(=O)NC(C)C(=O)Nc3ccncc3)cc2)CC1 (stereo unspecified)
MIC [3]: 4 µg/mL (≈ 9.51 µM) | MIC [5]: 4 µg/mL (≈ 9.51 µM) | MIC [16]: 4 µg/mL (≈ 9.51 µM) | MIC [19]: 8 µg/mL (≈ 19 µM) | MIC [24]: 2 µg/mL (≈ 4.76 µM) | MIC [30]: 4 µg/mL (≈ 9.51 µM)

CC1CCN(C(=O)/C=C/c2ccc(C(=O)NCC(=O)Nc3ccncc3)cc2)CC1
MIC [3]: 1 µg/mL (≈ 2.46 µM) | MIC [5]: 4 µg/mL (≈ 9.84 µM) | MIC [16]: 2 µg/mL (≈ 4.92 µM) | MIC [19]: 8 µg/mL (≈ 19.7 µM) | MIC [24]: 1 µg/mL (≈ 2.46 µM) | MIC [30]: 8 µg/mL (≈ 19.7 µM)

OC(Cn1cncn1)(Cn1cncn1)c1ccc(F)cc1F [FLUCONAZOLE]
MIC [3]: 0.5 µg/mL (≈ 1.63 µM) | MIC [5]: > 16 µg/mL | MIC [16]: 0.5 µg/mL (≈ 1.63 µM) | MIC [19]: > 16 µg/mL | MIC [24]: 0.5 µg/mL (≈ 1.63 µM) | MIC [30]: 4 µg/mL (≈ 13.1 µM)

COC(=O)c1ccc(C(=O)NCC(=O)Nc2ccncc2)cc1
Activity [1]: 65.51% | MIC [3]: 1 µg/mL (≈ 3.19 µM) | Activity [4]: 65.59% | MIC [5]: 2 µg/mL (≈ 6.38 µM) | Activity [7]: 33.06% | Activity [8]: Non-Toxic | Activity [9]: Active | Activity [10]: 0.97% | Activity [11]: 6.6 mmol/L | Activity [12]: 6.4% | Activity [13]: Toxic | Activity [14]: Non-Toxic | Activity [36]: 112 | MIC [16]: 0.5 µg/mL (≈ 1.6 µM) | MIC [19]: 2 µg/mL (≈ 6.38 µM) | Activity [20]: 0.46% | Activity [21]: Active | Activity [22]: 64.1% | Activity [23]: 29.5% | MIC [24]: 1 µg/mL (≈ 3.19 µM) | Activity [25]: Non-Toxic | Activity [26]: Non-Toxic | Activity [28]: 68.4 IU/L | Activity [29]: Non-Toxic | MIC [30]: 4 µg/mL (≈ 12.8 µM) | Activity [32]: 42.8 IU/L | Activity [34]: Active | Activity [35]: Active

CC1CCN(C(=O)c2ccc(C(=O)NCC(=O)Nc3ccncc3)cc2)CC1
MIC [3]: 2 µg/mL (≈ 5.26 µM) | MIC [5]: 4 µg/mL (≈ 10.5 µM) | MIC [16]: 0.5 µg/mL (≈ 1.31 µM) | MIC [19]: 4 µg/mL (≈ 10.5 µM) | MIC [24]: 1 µg/mL (≈ 2.63 µM) | MIC [30]: 4 µg/mL (≈ 10.5 µM)

COC(=O)c1ccc(C(=O)NC(C)C(=O)Nc2ccncc2)cc1 (stereo unspecified)
MIC [3]: 2 µg/mL (≈ 6.11 µM) | MIC [5]: 1 µg/mL (≈ 3.05 µM) | MIC [16]: 1 µg/mL (≈ 3.05 µM) | MIC [19]: 4 µg/mL (≈ 12.2 µM) | MIC [24]: 0.5 µg/mL (≈ 1.53 µM) | MIC [30]: 4 µg/mL (≈ 12.2 µM)
